Results on three compounds are retold here after publication PMC3591361 (PLoS ONE, 2013).

The conditions of data set [1]: free drug; stated without reference; cited from earlier work.
A further data set is described as follows: in vivo. More on the design: species or system mice. The conditions noted are these: i.v.; for half-life: female, athymic nude (nu/nu), mouse, iv, read-out: t1/2 (elimination half-life); for plasma concentration at 4 h: free drug administration (combined free drugs in DMSO). Here is the method: Human ovarian cancer SKOV-3 cells (2 x 10^6 in 0.1 ml matrigel/DMEM mixture) were implanted subcutaneously in each flank of 5–6 week-old female athymic nude mice (nu/nu, Charles River, Wilmington, MA). The tumor size was measured using a caliper, and the tumor volume was calculated as ½ × length × width^2.
Once SKOV-3 tumor volumes reached 100–300 mm^3, the mice were randomized into study groups (4 mice per group). […] At 5, 10, 15, 30, 60, 120 and 240 min post injection, whole blood was collected via the retro-orbital bleeding. Normal organs (liver, lung, spleen, kidney and heart) and tumor tissues were harvested at 120 min. […] The HPLC system (Waters, Milford, MA) consisted of a Waters 2795 pump, a Phenomenex (Torrance, CA) C8 column (5 µm, i.d. 4.6 mm × 150 mm) and a Waters 996 photodiode array detector. α-Naphthoflavone was used as an internal standard. […] For tissue homogenate samples, a gradient elution of A: sodium phosphate buffer and B: methanol (0–30 min 46% A, 30.01–40 min 28% A, 40.01–45 min 46% A) was used. The flow rate was 1.5 ml/min at 40°C. The assay methodology was established using blank plasma and tissue homogenate samples spiked with known drug concentrations. […] Representative chromatograms of the pure drugs, an extract of drug-spiked liver tissue, and an extract of blank liver tissue at 227, 333 and 281 nm are shown in Fig. 2.

The conditions of data set [2]: combination therapy; weekly i.v. infusion for paclitaxel, twice-weekly i.v. infusion for 17-AAG; cited from earlier work.
Data set [3] in a line: Stability of ICG fluorescence in HBS at 37°C. The data set is classed as physicochemical. Here is the method:
To confirm the incorporation of ICG into the micelles, the stability of ICG-labeled micelles was studied at 37°C. Freshly prepared free ICG solution in HBS at the identical concentration was used as a control. At 0, 2, 4, 8, 24 and 48 h, aliquots of the micellar or free ICG solution were analyzed for the fluorescence intensity at 800 nm using Odyssey imaging system (LI-COR Biosciences, Lincoln, NE). All samples were prepared and analyzed in triplicates.

Data set [4] is described as follows: In vivo whole-body NIR fluorescence imaging in SKOV-3 tumor-bearing mice. The following applies: i.v., ICG dose 2 mg/kg, 800 nm channel. The protocol:
ICG-labeled micelles were administered to SKOV-3 tumor-bearing mice via the tail vein injection at an ICG dose of 2 mg/kg. Freshly prepared free ICG solution in HBS was i.v. injected at the same dose to the control mice. Immediately following the injection (0 h) and at 1, 2, 4, 6, 24 and 48 h, the mice were anesthetized under a continuous flow of isoflurane/oxygen, and the spectral fluorescence signals of the whole body images (800 nm channel) were obtained using the Odyssey imaging system.

The mark [5] stands for this setting: plasma, combined free drugs in DMSO, 20 mg/kg paclitaxel + 37.5 mg/kg 17-AAG, plasma, mean ± SD, n = 4.

In brackets after ≈: the same amount, converted by molar mass.

The aqueous solubility is the dissolved amount per volume that the medium holds. As for `C=CCNC1=C2C[C@@H](C)C[C@H](OC)[C@H](O)[C@@H](C)/C=C(\C)[C@H](OC(N)=O)[C@@H](OC)/C=C\C=C(/C)C(=O)NC(=CC1=O)C2=O` [17-AAG, Tanespimycin], the aqueous solubility in data set [1] was 17 µM (≈ 9.96 µg/mL). Further, the half-life in the data set “in vivo” (setting [5]) is 20.3 ± 2.5 min. Besides, the “plasma concentration at 4 h” value in the data set “in vivo” is given as “below the detection limit”. In data set [2], the “maximum tolerated dose in cancer patients” value is reported as 175 mg/m^2.

Take `CC1(C)C(/C=C/C=C/C=C/C=C2\N(CCCCS(=O)(=O)O)c3ccc4ccccc4c3C2(C)C)=[N+](CCCCS(=O)(=O)[O-])c2ccc3ccccc3c21` [ICG, indocyanine green]: the “decrease in fluorescence emission intensity” value in data set [3] (8 h) was “about 50%”; in data set [3] (48 h), “over 80%”. In addition, the “clearance of fluorescence signal from the circulation/body” value in data set [4] was “rapidly cleared from the circulation”.

Turning to `CC(=O)O[C@H]1C(=O)[C@@]2(C)[C@H]([C@H](OC(=O)c3ccccc3)[C@]3(O)C[C@H](OC(=O)[C@H](O)[C@@H](NC(=O)c4ccccc4)c4ccccc4)C(C)=C1C3(C)C)[C@]1(OC(C)=O)CO[C@@H]1C[C@@H]2O` [paclitaxel, Paclitaxel], the AUC in “in vivo” (combined free drugs in DMSO, 20 mg/kg paclitaxel + 37.5 mg/kg 17-AAG, plasma, mean ± SD, n = 4) was found to be 415.3±56.7 uM⋅min. Moreover, the half-life in the data set “in vivo” (setting [5]) was around 40 min. In addition, the “plasma concentration at 4 h” value in the data set “in vivo” was “below the detection limit”. The “maximum tolerated dose in cancer patients” value in data set [2] is given as 80 mg/m^2.
